In general, melting point refers to the temperature, or range, at which the solid turns liquid.

The text below walks through data of US9399649B2, “Compounds for treating spinal muscular atrophy” (PTC Therapeutics Inc., priority 2012, dated 2016).

The subject of data set [1] is full length SMN2 minigene mRNA containing SMN2 exon 7. In words: SMN2 minigene mRNA splicing RT-qPCR assay in cultured cells. It is filed as cell-based, human. As to conditions: Homo sapiens, HEK293-H; HEK293H cells stably transfected with SMN2-A minigene, 24 hours, 7-point concentration curve; concentration giving 1.5-fold full length SMN2 mRNA vs vehicle; read-out: EC1.5x for production of full length SMN2 mRNA. On the procedure:
The reverse transcription-quantitative PCR-based (RT-qPCR) assay is used to quantify the level of the full length SMN2 minigene mRNA containing SMN2 exon 7 in a HEK293H cell line stably transfected with said minigene and treated with a test compound.
HEK293H cells stably transfected with the SMN2-A minigene construct described above (10,000 cells/well) are seeded in 200 ut, of cell culture medium (DMEM plus 10% FBS, with 200 μg/mL hygromycin) in 96-well flat-bottom plates and the plate is immediately swirled to ensure proper dispersal of cells, forming an even monolayer of cells. Cells are allowed to attach for at least 4-6 hours. Test compounds are serially diluted 3.16-fold in 100% DMSO to generate a 7-point concentration curve. A solution of test compound (1 μL, 200× in DMSO) is added to each cell-containing well and the plate is incubated for 24 hours in a cell culture incubator (37° C., 5% CO2, 100% relative humidity). 2 replicates are prepared for each test compound concentration. The cells are then lysed in Cells-To-Ct lysis buffer and the lysate is stored at −80° C.
Primer SMN Forward A (SEQ ID NO. 1) hybridizes to a nucleotide sequence in exon 7 (nucleotide 22 to nucleotide 40), primer SMN Reverse A (SEQ ID NO. 2) hybridizes to a nucleotide sequence in the coding sequence of Firefly luciferase, SMN Probe A (SEQ ID NO. 3) hybridizes to a nucleotide sequence in exon 7 (nucleotide 50 to nucleotide 54) and exon 8 (nucleotide 1 to nucleotide 21). The combination of these three oligonucleotides detects only SMN1 or SMN2 minigenes (RT-qPCR) and will not detect endogenous SMN1 or SMN2 genes.
The SMN forward and reverse primers are used at final concentrations of 0.4 μM. The SMN probe is used at a final concentration of 0.15 μM. The GAPDH primers are used at final concentrations of 0.2 μM and the probe at 0.15 μM.
The SMN2-minigene GAPDH mix (15 μL total volume) is prepared by combining 7.5 μL of 2×RT-PCR buffer, 0.4 μL of 25×RT-PCR enzyme mix, 0.75 μL of 20×GAPDH primer-probe mix, 4.0075 μL of water, 2 μL of 10-fold diluted cell lysate, 0.06 μL of 100 μM SMN forward primer, 0.06 μL of 100 μM SMN reverse primer, and 0.225 μL of 100 μM SMN probe.
PCR is carried out at the following temperatures for the indicated time: Step 1: 48° C. (15 min); Step 2: 95° C. (10 min); Step 3: 95° C. (15 sec); Step 4: 60° C. (1 min); then repeat Steps 3 and 4 for a total of 40 cycles.
Each reaction mixture contains both SMN2-A minigene and GAPDH primersprobe sets (multiplex design), allowing simultaneous measurement of the levels of two transcripts.
Two SMN spliced products are generated from the SMN2 minigene. The first spliced product containing exon 7, corresponding to full length SMN2 mRNA, is referred to herein using the term “SMN2 minigene FL.” The second spliced product lacking exon 7 is referred to herein using the term “SMN2 minigene Δ7.”
The increase of SMN2 minigene FL mRNA relative to that in cells treated with vehicle control is determined from real-time PCR data using a modified ΔΔCt method (as described in Livak and Schmittgen, Methods, 2001, 25:402-8). The amplification efficiency (E) is calculated from the slope of the amplification curve for SMN2 minigene FL and GAPDH individually. The abundances of SMN2 minigene FL and GAPDH are then calculated as (1+E)^−Ct, where Ct is the threshold value for each amplicon. The abundance of SMN2 minigene FL is normalized to GAPDH abundance. The normalized SMN2 minigene FL abundance from test compound-treated samples is then divided by normalized SMN2 minigene FL abundance from vehicle-treated cells to determine the level of SMN2 FL mRNA relative to vehicle control.
A general note: In qPCR the cycle at which signal appears reflects the starting amount.

The next data set has as its system Smn protein. As to the kind of experiment: Smn protein assay in cultured cells (SMN HTRF). Format: cell-based, human. The conditions noted are these: SMA patient fibroblast cells (GM03813), 48 hours; for maximum fold (Fold) increase of Smn protein: 7-point concentration data, relative to vehicle control; for EC1.5x for Smn protein expression: 7-point concentration curve, concentration producing 1.5 times Smn protein vs DMSO vehicle. On the procedure: The SMN HTRF (homogeneous time resolved fluorescence) assay is used to quantify the level of Smn protein in SMA patient fibroblast cells treated with test compounds.
Cells are thawed and cultured in DMEM-10% FBS for 72 hours. Cells are trypsinized, counted and re-suspended to a concentration of 25,000 cells/mL in DMEM-10% FBS. The cell suspensions are plated at 5,000 cells per well in a 96 well microtiter plate and incubated for 3 to 5 hours. […] Test compounds are serially diluted 3.16-fold in 100% DMSO to generate a 7-point concentration curve. 1 μL of test compound solution is transferred to cell-containing wells and cells are incubated for 48 hours in a cell culture incubator (37° C., 5% CO2, 100% relative humidity). Triplicate samples are set up for each test compound concentration. After 48 hours, the supernatant is removed from the wells and 25 μL of the RIPA lysis buffer, containing protease inhibitors, is added to the wells and incubated with shaking at room temperature for 1 hour. 25 μL of the diluent is added and then 35 μL of the resulting lysate is transferred to a 384-well plate, where each well contains 5 μL of the antibody solution (1:100 dilution of anti-SMN d2 and anti-SMN kryptate in SMN reconstitution buffer). The plate is centrifuged for 1 minute to bring the solution to the bottom of the wells, then incubated overnight at room temperature. Fluorescence for each well of the plate at 665 nm and 620 nm is measured on an EnVision multilabel plate reader (Perkin-Elmer).
The normalized fluorescence signal is calculated for each sample, Blank and vehicle control well by dividing the signal at 665 nm by the signal at 620 nm. Normalizing the signal accounts for possible fluorescence quenching due to the matrix effect of the lysate. The ΔF value (a measurement of Smn protein abundance as a percent value) for each sample well is calculated by subtracting the normalized average fluorescence for the Blank control wells from the normalized fluorescence for each sample well, then dividing this difference by the normalized average fluorescence for the Blank control wells and multiplying the resulting value by 100. The ΔF value for each sample well represents the Smn protein abundance from test compound-treated samples. The ΔF value for each sample well is divided by the ΔF value for the vehicle control wells to calculate the fold increase in Smn protein abundance relative to the vehicle control.
(TR-FRET usually uses a lanthanide donor and a delayed reading to cut background.)

Molecule `COc1ccc(-c2cc3ccc(N4CCN(C)CC4)cc3c(=O)o2)cc1` [Cpd 25, 3-(4-methoxyphenyl)-7-(4-methylpiperazin-1-yl)-1H-isochromen-1-one] registered a melting point of 166 to 168 °C. Besides, in data set [1], the EC (1.5-fold) is 1 to 3 µM. In the data set with Smn protein, the “maximum fold (Fold) increase of Smn protein” value (“maximum fold (Fold) increase” below) is recorded as “* (A maximum fold increase of ≦1.2 is indicated by one star (*))”.
`Cc1cn2cc(-c3cc4ccc(N5CCN(C(C)C)[C@H](C)C5)cc4c(=O)o3)nc2c(C)n1` [Cpd 144, 3-(6,8-dimethylimidazo[1,2-a]pyrazin-2-yl)-7-[(3R)-3-methyl-4-(propan-2-yl)piperazin-1-yl]-1H-isochromen-1-one]: the melting point was in the range of 262 to 267 °C. Besides, the EC (1.5-fold) in data set [1] is at most 0.1 µM. Moreover, in the data set on Smn protein, the “EC1.5x for Smn protein expression” value was “**** (an EC1.5×≦0.3 nM is indicated by four stars (****))” and the “maximum fold (Fold) increase” value is reported as “***** (a fold increase >1.65 is indicated by five stars (*****))”.
`Cc1cc2cc(-c3cc4ccc(N5CCNCC5)cc4c(=O)o3)ccc2o1` [Cpd 52, 3-(2-methyl-1-benzofuran-5-yl)-7-(piperazin-1-yl)-1H-isochromen-1-one] yielded a melting point of 206 to 208 °C. In addition, the EC (1.5-fold) in data set [1] lay within 0.1 to 0.3 µM. Further, in the data set with Smn protein, the “EC1.5x for Smn protein expression” value was “* (An EC1.5× for Smn protein expression between >3 μM and <10 μM is indicated by one star (*))”; the “maximum fold (Fold) increase” value was “*** (a fold increase between >1.35 and ≦1.5 is indicated by three stars (***))”.
In the case of `CCc1nc(C)cn2cc(-c3cc4ccc(N5C[C@@H](C)N(C)[C@@H](C)C5)cc4c(=O)o3)nc12` [Cpd 158, 3-(8-ethyl-6-methylimidazo[1,2-a]pyrazin-2-yl)-7-[(3R,5S)-3,4,5-trimethylpiperazin-1-yl]-1H-isochromen-1-one], the melting point fell in the range of 235 to 238 °C. In addition, the EC (1.5-fold) in data set [1] is at most 0.1 µM. In the data set on Smn protein, the “EC1.5x for Smn protein expression” value is listed as “**** (an EC1.5×≦0.3 nM is indicated by four stars (****))” and the “maximum fold (Fold) increase” value is given as “***** (a fold increase >1.65 is indicated by five stars (*****))”.
With `CN1CCN(c2ccc3cc(-c4cn5cccc(Cl)c5n4)oc(=O)c3c2)CC1` [Cpd 61, 3-(8-chloroimidazo[1,2-a]pyridin-2-yl)-7-(4-methylpiperazin-1-yl)-1H-isochromen-1-one], the melting point is 240 °C (dec.). For the same molecule, in data set [1], the EC (1.5-fold) was in the range of 1 to 3 µM. For the same molecule, in the data set with Smn protein, the “maximum fold (Fold) increase” value is recorded as “* (A maximum fold increase of ≦1.2 is indicated by one star (*))”.
Molecule `COCCN1CCN(c2ccc3cc(-c4cn5cc(C)nc(C)c5n4)oc(=O)c3c2)C[C@@H]1C` [Cpd 146, 3-(6,8-dimethylimidazo[1,2-a]pyrazin-2-yl)-7-[(3S)-4-(2-methoxyethyl)-3-methylpiperazin-1-yl]-1H-isochromen-1-one] came in with a melting point of 221 to 226 °C. Besides, in data set [1], the EC (1.5-fold) is 0.1 to 0.3 µM. In addition, in the data set with Smn protein, the “EC1.5x for Smn protein expression” value is given as “**** (an EC1.5×≦0.3 nM is indicated by four stars (****))” and the “maximum fold (Fold) increase” value is given as “***** (a fold increase >1.65 is indicated by five stars (*****))”.
Molecule `CCc1nc(C)cn2cc(-c3cc4ccc(N5CCN[C@@H](C)C5)cc4c(=O)o3)nc12` [Cpd 152, 3-(8-ethyl-6-methylimidazo[1,2-a]pyrazin-2-yl)-7-[(3S)-3-methylpiperazin-1-yl]-1H-isochromen-1-one] displayed a melting point of 206 to 211 °C. In data set [1], the EC (1.5-fold) is at most 0.1 µM. Moreover, in the data set with Smn protein, the “EC1.5x for Smn protein expression” value was “**** (an EC1.5×≦0.3 nM is indicated by four stars (****))” and the “maximum fold (Fold) increase” value is on record as “***** (a fold increase >1.65 is indicated by five stars (*****))”.
In turn, `CCc1nc(C)cn2cc(-c3cc4ccc(N5CCN(C)CC5)cc4c(=O)o3)nc12` [Cpd 151, 3-(8-ethyl-6-methylimidazo[1,2-a]pyrazin-2-yl)-7-(4-methylpiperazin-1-yl)-1H-isochromen-1-one] had a melting point of 229 to 234 °C. Moreover, in data set [1], the EC (1.5-fold) is at most 0.1 µM. For the same molecule, in the data set with Smn protein, the “EC1.5x for Smn protein expression” value is recorded as “**** (an EC1.5×≦0.3 nM is indicated by four stars (****))” and the “maximum fold (Fold) increase” value is “***** (a fold increase >1.65 is indicated by five stars (*****))”.
`Cc1cn2cc(-c3cc4ccc(N5CCN6CCC[C@H]6C5)cc4c(=O)o3)cc2c(C)n1` [Cpd 80, 3-(1,3-dimethylpyrrolo[1,2-a]pyrazin-7-yl)-7-[(8aS)-hexahydropyrrolo[1,2-a]pyrazin-2(1H)-yl]-1H-isochromen-1-one] displayed a melting point of 220 to 222 °C. Besides, in data set [1], the EC (1.5-fold) is at most 0.1 µM. In addition, in the data set on Smn protein, the “EC1.5x for Smn protein expression” value is listed as “**** (an EC1.5×≦0.3 nM is indicated by four stars (****))”; the “maximum fold (Fold) increase” value was “**** (a fold increase between >1.5 and ≦1.65 is indicated by four stars (****))”.
The molecule `COc1ccccc1-c1cc2ccc(N3C[C@@H](C)N[C@@H](C)C3)cc2c(=O)o1` [Cpd 23, 7-[(3R,5S)-3,5-dimethylpiperazin-1-yl]-3-(2-methoxyphenyl)-1H-isochromen-1-one] came in with a melting point of 154 to 157 °C. Moreover, in data set [1], the EC (1.5-fold) lay in the range of 1 to 3 µM. Further, the “maximum fold (Fold) increase” value in the data set with Smn protein is “* (A maximum fold increase of ≦1.2 is indicated by one star (*))”.
Take `C[C@@H]1CN(c2ccc3cc(-c4nc5ccccc5s4)oc(=O)c3c2)C[C@H](C)N1` [Cpd 9, 3-(1,3-benzothiazol-2-yl)-7-[(3R,5S)-3,5-dimethylpiperazin-1-yl]-1H-isochromen-1-one]: the melting point fell in the range of 310 to 312 °C. Also, the EC (1.5-fold) in data set [1] lay within 3 to 30 µM. For the same molecule, the “maximum fold (Fold) increase” value in the data set with Smn protein is “* (A maximum fold increase of ≦1.2 is indicated by one star (*))”.
